Source: PMC7615677 (Science translational medicine, 2023)
Like-named read-outs stand apart in the source and are kept apart here.

How the values were obtained:
[1] = In vitro cytotoxicity assay; type: cell-based; conditions: monkey, Vero monkey kidney epithelial cells
[2] = target: complex III of L. donovani (Leishmania donovani, UniProt A5HU08); experiment: Complex III assay in mitochondria-enriched cell lysates
Description: Measurement of complex III activity and inhibition were performed as described previously ([6]).

[3] = target: T1, alpha1A Human Adrenoceptor GPCR (Homo sapiens, UniProt P35348); experiment: α1A antagonism IC50 determination; type: cell-based
T1 construct: Eurofins (contract assay)
From the text: Listed values represent the percent change relative to the DMSO control activity. When an IC50 had to be determined, eight different concentrations were included. All values are the mean of assay readout duplicates.

[4] = tested on: L. infantum; experiment: Chronic hamster infection model (VL); type: in vivo, golden hamsters
From the text: Female golden hamsters (5 per treatment group) were infected through intracardiac administration of 2x10^7 L. infantum amastigotes obtained from the spleen of a heavily infected donor hamster. […] After 5-day treatment period, followed by a 10-day wash out period, animals were sacrificed, and parasites burden assessed in the three target organs (liver, spleen, and bone-marrow). For this assessment, organs of individual animals were weighed, except for bone-marrow thus only providing a semi-quantitative evaluation only. Impression smears were Giemsa-stained for microscopic evaluation of amastigote burden, expressed as LDU (= mean number of amastigotes/cell × organ weight in mg) and the results were expressed as a percentage reduction compared to the burdens in the control group (vehicle as placebo). For evaluating the presence of viable residual burden after treatment, a promastigote back-transformation assay was conducted. This consisted of the incubation at ambient temperature of aseptically collected pieces of spleen or liver tissue in 1 mL of promastigote back-transformation medium in 24-well plates. For the bone-marrow, resected femurs were flushed with 1 mL medium. The medium consists of HOMEM pH 6.0 prepared as described elsewhere ([5]) with 10% fetal bovine serum (Gibco), 2.5% penicillin/streptomycin and 1% gentamicin (Merck). […]

[5] = tested on: Salmonella typhimurium strains TA1535, TA1537, TA98 and TA100, and Escherichia coli WP2 uvrA (pKM101); experiment: Ames test; type: cell-based; conditions: absence or presence of rat liver S9
Description: Salmonella typhimurium strains TA1535, TA1537, TA98 and TA100, and Escherichia coli WP2 uvrA (pKM101) were employed. Positive controls were respectively sodium azide (2 μg/plate), 9-amino acridine (50 μg/plate), 2-nitrofluorene (1 μg/plate), sodium azide (2 μg/plate) and 4-nitroquinoline-1-oxide (2 μg/plate). The negative control was DMSO.

[6] = Compartmental PK modelling and repeat-dose simulation; design: species or system mice; conditions: for AUC: read-out: AUC24 ss
Description: To support pharmacokinetic/pharmacodynamic (PKPD) analysis, data in mice and hamsters were also analyzed by compartmental modeling using Phoenix WinNonlin (version 8.2; Certara, Princeton, NJ). For each dose level, an extravascular dosing, single compartment disposition model was fit to the combined Day 1/Day 5 repeat dose plasma data. The model was parameterized with a single volume term (V/F), and with first order absorption (K01) and elimination (K10) rate constants. Initial values for the parameter estimates were obtained by fitting of the model to the Day 1 data at the lowest dose level only, and the same initial values were used across the dose range. Experimental data used in model fitting were the mean concentration-time profiles and the average dose administered to each group. The weighting scheme (1/Y2 for mouse and 1/Y for hamster) was selected based on goodness of fit of the peak region of the experimental profiles. Parameter estimates obtained through fitting were used to simulate full repeat-dose plasma concentration-time profiles with both once-daily and twice-daily (dosing at […]) administration at each dose level and treatment duration used in the efficacy studies.

[7] = tested on: T. b. rhodesiense (bloodstream form); experiment: In vitro activity against other kinetoplastid parasites; type: cell-based; conditions: Trypanosoma brucei, one range given for T. brucei brucei and T. b. rhodesiense
[8] = In vitro cytotoxicity assay; type: cell-based; conditions: mouse, primary mouse macrophages (PMM)
[9] = in vivo; conditions: both, Wistar Han, rat, po
From the text: Parameters monitored included morbidity/mortality, clinical signs, body weight, food consumption, hematology and serum clinical chemistry. Main study animals were killed on the day after the last dose and necropsied. Selected organs were weighed. Organ/tissue samples were fixed and preserved at necropsy. Following the macroscopic examination, selected organs/tissues were examined histopathologically and compared to the control group. Satellite animals were sampled for toxicokinetics on days 1 and 14, at various time-points after treatment.

[10] = mice, 3.125 mg/kg bid, 10 days, simulated
[11] = mice, 12.5 mg/kg bid, 5 days, simulated
[12] = mice, 12.5 mg/kg qd, 5 days, simulated
[13] = mice, 25 mg/kg bid, 5 days, simulated
[14] = mice, 25 mg/kg qd, 5 days, simulated
[15] = mouse, plasma, po, 3.125 mg/kg, mice, 3.125 mg/kg bid, 10 days, simulated
[16] = mouse, plasma, po, 12.5 mg/kg, mice, 12.5 mg/kg bid, 5 days, simulated
[17] = mouse, plasma, po, 12.5 mg/kg, mice, 12.5 mg/kg qd, 5 days, simulated
[18] = mouse, plasma, po, 25 mg/kg, mice, 25 mg/kg qd, 5 days, simulated
[19] = mouse, plasma, po, Mice, 3.6 mg/kg, fitted
[20] = mouse, plasma, po, Mice, 7.1 mg/kg, fitted
[21] = mouse, plasma, po, Mice, 12.7 mg/kg, fitted
[22] = mouse, plasma, po, Mice, 25 mg/kg, fitted

complex III of L. donovani, sequence (A5HU08 1-290): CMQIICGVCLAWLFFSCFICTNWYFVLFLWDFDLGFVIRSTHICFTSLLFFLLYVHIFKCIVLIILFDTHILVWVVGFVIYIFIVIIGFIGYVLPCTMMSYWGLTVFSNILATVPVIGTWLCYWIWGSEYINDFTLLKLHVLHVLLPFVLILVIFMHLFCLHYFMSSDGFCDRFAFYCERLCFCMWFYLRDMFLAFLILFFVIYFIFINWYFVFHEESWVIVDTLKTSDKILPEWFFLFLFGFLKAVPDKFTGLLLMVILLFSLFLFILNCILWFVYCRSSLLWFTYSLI
complex III of L. donovani, sequence (A0A3S7WPP0 1-258 partner): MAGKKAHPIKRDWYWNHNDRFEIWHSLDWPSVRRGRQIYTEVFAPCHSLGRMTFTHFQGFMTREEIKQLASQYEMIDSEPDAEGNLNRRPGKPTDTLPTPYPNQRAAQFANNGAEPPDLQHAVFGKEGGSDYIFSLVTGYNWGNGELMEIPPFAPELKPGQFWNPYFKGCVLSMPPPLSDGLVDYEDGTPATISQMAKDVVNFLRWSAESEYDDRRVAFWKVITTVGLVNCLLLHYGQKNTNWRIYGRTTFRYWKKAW
T1 sequence (P35348 whole entry): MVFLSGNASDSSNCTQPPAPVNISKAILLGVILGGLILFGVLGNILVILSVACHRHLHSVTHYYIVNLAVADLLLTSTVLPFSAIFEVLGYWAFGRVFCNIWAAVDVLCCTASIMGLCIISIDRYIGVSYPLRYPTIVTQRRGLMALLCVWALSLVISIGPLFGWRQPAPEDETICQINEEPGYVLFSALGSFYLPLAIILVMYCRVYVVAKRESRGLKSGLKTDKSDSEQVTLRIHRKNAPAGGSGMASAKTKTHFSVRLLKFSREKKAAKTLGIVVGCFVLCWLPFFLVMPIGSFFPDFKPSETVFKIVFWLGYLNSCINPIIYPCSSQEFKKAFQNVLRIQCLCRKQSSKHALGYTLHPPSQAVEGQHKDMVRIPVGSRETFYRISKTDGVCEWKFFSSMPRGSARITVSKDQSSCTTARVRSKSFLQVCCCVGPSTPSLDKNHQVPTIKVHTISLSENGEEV

Cc1[nH]c2nc(N)nc(C)c2c1-c1ccc(C#N)c2c1OCO2 [DNDI-6174]
CC50 [1]: > 50 µM
IC50 ([2]; lysates from axenic amastigote stage): 0.002 ± 0.0005 µM
IC50 ([2]; lysates from promastigote stage): 0.008 ± 0.0017 µM
IC50 [3]: 12.8 µM
minimum efficacious daily dose ([4]; given qd for 5 days): 12.5 mg/kg
reduction of the parasite burden ([4]; once daily dosing at and above 12.5 mg/kg, liver, spleen and bone-marrow): more than 99%
mutagenic potential (AMES), in words [5]: did not show intrinsic mutagenic potential
K01 ([6]; Mice, 3.6 mg/kg, fitted): 1.04 h⁻¹
K10 ([6]; Mice, 3.6 mg/kg, fitted): 0.270 h⁻¹
V/F ([6]; Mice, 3.6 mg/kg, fitted): 2.76 L/kg
K01 ([6]; Mice, 7.1 mg/kg, fitted): 0.833 h⁻¹
K10 ([6]; Mice, 7.1 mg/kg, fitted): 0.246 h⁻¹
V/F ([6]; Mice, 7.1 mg/kg, fitted): 1.95 L/kg
K01 ([6]; Mice, 12.7 mg/kg, fitted): 0.634 h⁻¹
K10 ([6]; Mice, 12.7 mg/kg, fitted): 0.213 h⁻¹
V/F ([6]; Mice, 12.7 mg/kg, fitted): 1.43 L/kg
K01 ([6]; Mice, 25 mg/kg, fitted): 3.00 h⁻¹
K10 ([6]; Mice, 25 mg/kg, fitted): 0.158 h⁻¹
V/F ([6]; Mice, 25 mg/kg, fitted): 2.40 L/kg
AUC24 ss (unbound) [6, 10]: 1010 ng·h/mL
Cav ss [6, 10]: 351 ng/mL
Cav ss (unbound) [6, 10]: 42 ng/mL
Cmax (unbound) [6, 10]: 98 ng/mL
Cmin [6, 10]: 23 ng/mL
Cmin (unbound) [6, 10]: 3 ng/mL
Cum AUC (unbound) [6, 10]: 10100 ng·h/mL
AUC24 ss [6, 11]: 82000 ng·h/mL
AUC24 ss (unbound) [6, 11]: 9840 ng·h/mL
Cav ss [6, 11]: 3420 ng/mL
Cav ss (unbound) [6, 11]: 410 ng/mL
Cmax (unbound) [6, 11]: 780 ng/mL
Cmin [6, 11]: 520 ng/mL
Cmin (unbound) [6, 11]: 62 ng/mL
Cum AUC [6, 11]: 410000 ng·h/mL
Cum AUC (unbound) [6, 11]: 49200 ng·h/mL
AUC24 ss (unbound) [6, 12]: 4920 ng·h/mL
Cav ss [6, 12]: 1710 ng/mL
Cav ss (unbound) [6, 12]: 205 ng/mL
Cmax (unbound) [6, 12]: 608 ng/mL
Cmin [6, 12]: 80 ng/mL
Cmin (unbound) [6, 12]: 10 ng/mL
Cum AUC (unbound) [6, 12]: 24600 ng·h/mL
AUC24 ss (unbound) [6, 13]: 15800 ng·h/mL
Cav ss [6, 13]: 5470 ng/mL
Cav ss (unbound) [6, 13]: 657 ng/mL
Cmax [6, 13]: 11700 ng/mL
Cmax (unbound) [6, 13]: 1410 ng/mL
Cmin [6, 13]: 1140 ng/mL
Cmin (unbound) [6, 13]: 137 ng/mL
Cum AUC [6, 13]: 657000 ng·h/mL
Cum AUC (unbound) [6, 13]: 78800 ng·h/mL
AUC24 ss (unbound) [6, 14]: 7880 ng·h/mL
Cav ss [6, 14]: 2740 ng/mL
Cav ss (unbound) [6, 14]: 328 ng/mL
Cmax (unbound) [6, 14]: 1080 ng/mL
Cmin [6, 14]: 251 ng/mL
Cmin (unbound) [6, 14]: 30 ng/mL
Cum AUC (unbound) [6, 14]: 39400 ng·h/mL
Cmax at 10 days [6, 15]: 820 ng/mL
AUC [6, 15]: 8410 ng·h/mL
AUC at 10 days ([6]; mouse, plasma, po, 3.125 mg/kg, mice, 3.125 mg/kg bid, 10 days, simulated, read-out: Cum AUC): 84100 ng·h/mL
Cmax ([6]; mouse, plasma, po, 3.6 mg/kg, Mice, 3.6 mg/kg, fitted, read-out: Cmax): 813 ng/mL
Cmax ([6]; mouse, plasma, po, 7.1 mg/kg, Mice, 7.1 mg/kg, fitted, read-out: Cmax): 2190 ng/mL
Cmax at 5 days [6, 16]: 6500 ng/mL
AUC [6, 16]: 82000 ng·h/mL
AUC at 5 days ([6]; mouse, plasma, po, 12.5 mg/kg, mice, 12.5 mg/kg bid, 5 days, simulated, read-out: Cum AUC): 410000 ng·h/mL
Cmax at 5 days [6, 17]: 5070 ng/mL
AUC [6, 17]: 41000 ng·h/mL
AUC at 5 days ([6]; mouse, plasma, po, 12.5 mg/kg, mice, 12.5 mg/kg qd, 5 days, simulated, read-out: Cum AUC): 205000 ng·h/mL
Cmax ([6]; mouse, plasma, po, 12.7 mg/kg, Mice, 12.7 mg/kg, fitted, read-out: Cmax): 5100 ng/mL
Cmax ([6]; mouse, plasma, po, 25 mg/kg, Mice, 25 mg/kg, fitted, read-out: Cmax): 8830 ng/mL
Cmax at 5 days ([6]; mouse, plasma, po, 25 mg/kg, mice, 25 mg/kg bid, 5 days, simulated): 11700 ng/mL
AUC at 5 days ([6]; mouse, plasma, po, 25 mg/kg, mice, 25 mg/kg bid, 5 days, simulated, read-out: Cum AUC): 657000 ng·h/mL
Cmax at 5 days [6, 18]: 9030 ng/mL
AUC [6, 18]: 65700 ng·h/mL
AUC at 5 days ([6]; mouse, plasma, po, 25 mg/kg, mice, 25 mg/kg qd, 5 days, simulated, read-out: Cum AUC): 328000 ng·h/mL
AUC(0-inf) [6, 19]: 4840 ng·h/mL
CL/F [6, 19]: 12.4 mL/min/kg
AUC(0-inf) [6, 20]: 14800 ng·h/mL
CL/F [6, 20]: 7.98 mL/min/kg
AUC(0-inf) [6, 21]: 41700 ng·h/mL
CL/F [6, 21]: 5.08 mL/min/kg
AUC(0-inf) [6, 22]: 65700 ng·h/mL
CL/F [6, 22]: 6.35 mL/min/kg
EC50 [7]: 5 to 20 µM
CC50 [8]: > 64 µM
NOAEL at 14 days [9]: 80 mg/kg
